According to ChEMBL document CHEMBL1201862, “PubChem BioAssay data set” (2004):
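Test compounds were applied to cells in 96-well plates for 48 hours at 5 doses. Here, GI50 denotes the concentration required for 50% inhibition of growth.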 Active and inactive are the calls of the source. Rule as the data show it: active = GI50 up to about 1.1 µM and inactive = higher.

Key:
Test in all cases: NCI-60 cell line screen, 48 h
[1] = system: SF-539
[2] = system: SR
[3] = system: UACC-62
[4] = system: LOX IMVI
[5] = system: COLO 205
[6] = system: HOP-62
[7] = system: K562
[8] = system: SNB-19
[9] = system: HOP-92
[10] = system: SF-268
[11] = system: TK-10
[12] = system: SK-OV-3
[13] = system: CAKI-1
[14] = system: SN12C
[15] = system: U-251
[16] = system: HL-60
[17] = system: MCF7
[18] = system: RPMI-8226
[19] = system: IGROV-1
[20] = system: NCI-H460

Row | Compound | GI50 [1] | GI50 [2] | GI50 [3] | GI50 [4] | GI50 [5] | GI50 [6] | GI50 [7] | GI50 [8] | GI50 [9] | GI50 [10] | GI50 [11] | GI50 [12] | GI50 [13] | GI50 [14] | GI50 [15] | GI50 [16] | GI50 [17] | GI50 [18] | GI50 [19] | GI50 [20]
1 | O=C(/C=C1\Nc2ncccc2N=C1CC(=O)c1ccccc1)c1ccccc1 | 13.2 µM (inactive) | 4.66 µM (inactive) | 2.84 µM (inactive) | 5.12 µM (inactive) | 4.97 µM (inactive) | 0.679 µM (active) | 5.11 µM (inactive) | 7.69 µM (inactive) | 3.52 µM (inactive) | 2.53 µM (inactive) | 35.6 µM (inactive) | 12 µM (inactive) | 2.06 µM (inactive) | 2.24 µM (inactive) | 3.24 µM (inactive) | 13.5 µM (inactive) | 3.61 µM (inactive) | 5.37 µM (inactive) | 2.72 µM (inactive) | 1.59 µM (inactive)
2 | O=C(O)/C=N\N=c1[nH]c2ccccc2[nH]1 | > 100 µM (inactive) | > 100 µM (inactive) | > 100 µM (inactive) | > 100 µM (inactive) | > 100 µM (inactive) | > 100 µM (inactive) | > 100 µM (inactive) | > 100 µM (inactive) | > 100 µM (inactive) | > 100 µM (inactive) | > 100 µM (inactive) | > 100 µM (inactive) | > 100 µM (inactive) | > 100 µM (inactive) | > 100 µM (inactive) | > 100 µM (inactive) | 49.2 µM (inactive) | > 100 µM (inactive) | > 100 µM (inactive) | > 100 µM (inactive)
3 | CCCCCCCCCCCCCCCCCCN(C)CC(COP(=O)([O-])OCC[N+](C)(C)C)OC (stereo not given) | 16.7 µM (inactive) | 2.44 µM (inactive) | 11.2 µM (inactive) | 10 µM (inactive) | 2.91 µM (inactive) | 9.38 µM (inactive) | 18.8 µM (inactive) | 7.29 µM (inactive) | 9.77 µM (inactive) | 8.17 µM (inactive) | 3.32 µM (inactive) | 14.1 µM (inactive) | 5.27 µM (inactive) | 27.4 µM (inactive) | 4.9 µM (inactive) | 3.66 µM (inactive) | 29.4 µM (inactive) | 6.03 µM (inactive) | 3.1 µM (inactive) | 4.25 µM (inactive)
4 | COc1c(OC)c(OC)c2c(c1OC)c(=O)c1ccccc1n2C [MELICOPICINE] | > 100 µM (inactive) | 6.65 µM (inactive) | > 100 µM (inactive) | > 100 µM (inactive) | > 100 µM (inactive) | > 100 µM (inactive) | > 100 µM (inactive) | > 100 µM (inactive) | > 100 µM (inactive) | > 100 µM (inactive) | > 100 µM (inactive) | > 100 µM (inactive) | > 100 µM (inactive) | > 100 µM (inactive) | > 100 µM (inactive) | 57.4 µM (inactive) | > 100 µM (inactive) | > 100 µM (inactive) | > 100 µM (inactive) | > 10 µM (inactive)
